Starred links: 1 amine or outer side, 2 acyl side, 3 side chain; linkers in the order of their positions; H or OH if unused. Positions of bridges follow the written chain, without caps; N, C: chain ends. Residues, ends and D or L forms follow the SMILES beside them. Phenylene(1,4-NHCOCH2)2 = O=C(C[*:1])Nc1ccc(NC(=O)C[*:2])cc1; X4 = O=C(C[*:1])O[C@H]1CC[C@@H](OC(=O)C[*:2])CC1; X9 = O=C(C[*:1])O[C@@H]1CCC[C@H](OC(=O)C[*:2])C1; X5 = CN(C(=O)C[*:1])c1ccc(N(C)C(=O)C[*:2])cc1; X6 = O=C(C[*:1])Nc1cc(Cl)c(NC(=O)C[*:2])cc1Cl; X8 = COc1cc(NC(=O)C[*:2])c(OC)cc1NC(=O)C[*:1]; X7 = O=C(C[*:1])Nc1cc(F)c(NC(=O)C[*:2])cc1F
Experiment: Measurement of LogD (CHI logD by HPLC)
Type: physicochemical
Details: CHI log D, 50 mM ammonium acetate pH 7.4 / acetonitrile gradient, C-18 column, 25° C.
Description: Measurement of LogD: LogD values were measured on a Agilent 1260 HPLC with UV detector (254, 220 nm), using a Gemini NX C-18 50×3 mm column (Phenomenex) with a 6-minute 0-100% mobile phase gradient of A) 50 mM ammonium acetate pH 7.4 and B) Acetonitrile at 25° C. with a flow rate of 1 mL/min and injection volume of 3-5 uL.

`CC[C@H](C)[C@@H]1NC(=O)[C@H](CC(C)C)NC(=O)[C@H](C)NC(=O)[C@H](C)NC(=O)[C@H](Cc2c[nH]cn2)NC(=O)[C@H](CCC(=O)O)NC(=O)[C@@H](NC(=O)[C@H](C)NC(=O)[C@H](Cc2c[nH]c3ccccc23)NC(=O)[C@H](CC(C)C)NC(=O)[C@H](C)NC(=O)[C@@H]2CCCN2C(=O)[C@H](CC(=O)O)NC(=O)[C@H](C)N)CSCC(=O)O[C@H]2CC[C@H](CC2)OC(=O)CSC[C@@H](C(=O)N[C@@H](CCC(=O)O)C(=O)N[C@H](C(=O)N[C@@H](CCC(N)=O)C(N)=O)[C@@H](C)O)NC1=O` [Compound 45] (H-ADPALWACEHAALICETQ-NH2; linker 8-15 via X4; N-terminus and C-terminus assumed) and `CC[C@H](C)[C@@H]1NC(=O)[C@H](CC(C)C)NC(=O)[C@H](C)NC(=O)[C@H](C)NC(=O)[C@H](Cc2c[nH]cn2)NC(=O)[C@H](CCC(=O)O)NC(=O)[C@@H](NC(=O)[C@H](C)NC(=O)[C@H](Cc2c[nH]c3ccccc23)NC(=O)[C@H](CC(C)C)NC(=O)[C@H](C)NC(=O)[C@@H]2CCCN2C(=O)[C@H](CC(=O)O)NC(=O)[C@H](C)N)CSCC(=O)O[C@@H]2CCC[C@@H](C2)OC(=O)CSC[C@@H](C(=O)N[C@@H](CCC(=O)O)C(=O)N[C@H](C(=O)N[C@@H](CCC(N)=O)C(N)=O)[C@@H](C)O)NC1=O` [Compound 46] (H-ADPALWACEHAALICETQ-NH2; linker 8-15 via X9; N-terminus and C-terminus assumed) are within 0.2 log units of each other in chromatographic logD: 1.03 for the first, 0.94 for the second.

`CC[C@H](C)[C@@H]1NC(=O)[C@H](CC(C)C)NC(=O)[C@H](C)NC(=O)[C@H](C)NC(=O)[C@H](Cc2c[nH]cn2)NC(=O)[C@H](CCC(=O)O)NC(=O)[C@@H](NC(=O)[C@H](C)NC(=O)[C@H](Cc2c[nH]c3ccccc23)NC(=O)[C@H](CC(C)C)NC(=O)[C@H](C)NC(=O)[C@@H]2CCCN2C(=O)[C@H](CC(=O)O)NC(=O)[C@H](C)N)CSCC(=O)Nc2cc(OC)c(cc2OC)NC(=O)CSC[C@@H](C(=O)N[C@@H](CCC(=O)O)C(=O)N[C@H](C(=O)N[C@@H](CCC(N)=O)C(N)=O)[C@@H](C)O)NC1=O` [Compound 43] (H-ADPALWACEHAALICETQ-NH2; linker 8-15 via X8; N-terminus and C-terminus assumed) and `CC[C@H](C)[C@@H]1NC(=O)[C@H](CC(C)C)NC(=O)[C@H](C)NC(=O)[C@H](C)NC(=O)[C@H](Cc2c[nH]cn2)NC(=O)[C@H](CCC(=O)O)NC(=O)[C@@H](NC(=O)[C@H](C)NC(=O)[C@H](Cc2c[nH]c3ccccc23)NC(=O)[C@H](CC(C)C)NC(=O)[C@H](C)NC(=O)[C@@H]2CCCN2C(=O)[C@H](CC(=O)O)NC(=O)[C@H](C)N)CSCC(=O)Nc2cc(Cl)c(cc2Cl)NC(=O)CSC[C@@H](C(=O)N[C@@H](CCC(=O)O)C(=O)N[C@H](C(=O)N[C@@H](CCC(N)=O)C(N)=O)[C@@H](C)O)NC1=O` [Compound 42] (H-ADPALWACEHAALICETQ-NH2; linker 8-15 via X6; N-terminus and C-terminus assumed) are within 0.2 log units of each other in chromatographic logD: 0.75 for the first, 0.84 for the second.

`CC[C@H](C)[C@@H]1NC(=O)[C@H](CC(C)C)NC(=O)[C@H](C)NC(=O)[C@H](C)NC(=O)[C@H](Cc2c[nH]cn2)NC(=O)[C@H](CCC(=O)O)NC(=O)[C@@H](NC(=O)[C@H](C)NC(=O)[C@H](Cc2c[nH]c3ccccc23)NC(=O)[C@H](CC(C)C)NC(=O)[C@H](C)NC(=O)[C@@H]2CCCN2C(=O)[C@H](CC(=O)O)NC(=O)[C@H](C)N)CSCC(=O)N(C)c2ccc(cc2)N(C)C(=O)CSC[C@@H](C(=O)N[C@@H](CCC(=O)O)C(=O)N[C@H](C(=O)N[C@@H](CCC(N)=O)C(N)=O)[C@@H](C)O)NC1=O` [Compound 40] (H-ADPALWACEHAALICETQ-NH2; linker 8-15 via X5; N-terminus and C-terminus assumed) and `CC[C@H](C)[C@@H]1NC(=O)[C@H](CC(C)C)NC(=O)[C@H](C)NC(=O)[C@H](C)NC(=O)[C@H](Cc2c[nH]cn2)NC(=O)[C@H](CCC(=O)O)NC(=O)[C@@H](NC(=O)[C@H](C)NC(=O)[C@H](Cc2c[nH]c3ccccc23)NC(=O)[C@H](CC(C)C)NC(=O)[C@H](C)NC(=O)[C@@H]2CCCN2C(=O)[C@H](CC(=O)O)NC(=O)[C@H](C)N)CSCC(=O)Nc2cc(F)c(cc2F)NC(=O)CSC[C@@H](C(=O)N[C@@H](CCC(=O)O)C(=O)N[C@H](C(=O)N[C@@H](CCC(N)=O)C(N)=O)[C@@H](C)O)NC1=O` [Compound 41] (H-ADPALWACEHAALICETQ-NH2; linker 8-15 via X7; N-terminus and C-terminus assumed) are the same in chromatographic logD: 0.73 for the first, 0.73 for the second.

`CC(C)C[C@@H]1NC(=O)[C@H](C)NC(=O)[C@H](C)NC(=O)[C@H](Cc2c[nH]c3ccccc23)NC(=O)[C@H](CCC(=O)O)NC(=O)[C@@H](NC(=O)[C@H](CCCNC(=N)N)NC(=O)[C@H](Cc2c[nH]cn2)NC(=O)[C@@H](NC(=O)[C@H](C)NC(=O)[C@@H]2CCCN2C(=O)[C@H](CC(=O)O)NC(=O)[C@H](C)N)[C@@H](C)O)CSCC(=O)Nc2ccc(cc2)NC(=O)CSC[C@@H](C(=O)N[C@@H](CCC(=O)O)C(=O)N[C@@H](CC(C)C)C(=O)N[C@H](C(N)=O)C(C)C)NC(=O)[C@H](Cc2c[nH]cn2)NC1=O` [Compound 1] and `COc1cc2c(OC)cc1NC(=O)CSC[C@@H](C(=O)N[C@@H](CCC(=O)O)C(=O)N[C@@H](CC(C)C)C(=O)N[C@H](C(N)=O)C(C)C)NC(=O)[C@H](Cc1c[nH]cn1)NC(=O)[C@H](CC(C)C)NC(=O)[C@H](C)NC(=O)[C@H](C)NC(=O)[C@H](Cc1c[nH]c3ccccc13)NC(=O)[C@H](CCC(=O)O)NC(=O)[C@@H](NC(=O)[C@H](CCCNC(=N)N)NC(=O)[C@H](Cc1c[nH]cn1)NC(=O)[C@@H](NC(=O)[C@H](C)NC(=O)[C@@H]1CCCN1C(=O)[C@H](CC(=O)O)NC(=O)[C@H](C)N)[C@@H](C)O)CSCC(=O)N2` [Compound 34] are within 0.2 log units of each other in chromatographic logD: 0.57 for the first, 0.63 for the second.

`CC[C@H](C)[C@H](NC(=O)[C@H](CCC(=O)O)NC(=O)[C@@H]1CSCC(=O)Nc2ccc(cc2)NC(=O)CSC[C@H](NC(=O)[C@@H]2CCCN2C(=O)[C@H](Cc2c[nH]c3ccccc23)NC(=O)[C@H](CCC(N)=O)NC(=O)[C@H](C)NC(=O)[C@@H]2CCCN2C(=O)[C@H](CC(=O)O)NC(=O)[C@H](C)N)C(=O)N[C@@H](CCC(=O)O)C(=O)N[C@@H](Cc2c[nH]cn2)C(=O)N[C@@H](C)C(=O)N[C@@H](C)C(=O)N[C@@H](CC(C)C)C(=O)N[C@@H](CC(C)C)C(=O)N1)C(=O)N[C@@H](CCC(=O)O)C(N)=O` [Compound 14] (H-ADPAQWPCEHAALLCEIE-NH2; linker 8-15 via Phenylene(1,4-NHCOCH2)2; N-terminus and C-terminus assumed) and `CC(C)C[C@@H]1NC(=O)[C@H](C)NC(=O)[C@H](C)NC(=O)[C@H](Cc2c[nH]cn2)NC(=O)[C@H](CCC(=O)O)NC(=O)[C@@H](NC(=O)[C@H](CCC(N)=O)NC(=O)[C@H](Cc2c[nH]c3ccccc23)NC(=O)[C@@H]2CCCN2C(=O)[C@H](C)NC(=O)[C@@H]2CCCN2C(=O)[C@H](CC(=O)O)NC(=O)[C@H](C)N)CSCC(=O)Nc2ccc(cc2)NC(=O)CSC[C@@H](C(=O)N[C@@H](CCC(=O)O)C(=O)N[C@@H](CC(C)C)C(=O)N[C@@H](CCC(=O)O)C(N)=O)NC(=O)[C@H](CC(C)C)NC1=O` [Compound 11] (H-ADPAPWQCEHAALLCELE-NH2; linker 8-15 via Phenylene(1,4-NHCOCH2)2; N-terminus and C-terminus assumed) are the same in chromatographic logD: 0.47 for the first, 0.47 for the second.

Going from `CC[C@H](C)[C@@H]1NC(=O)[C@H](CC(C)C)NC(=O)[C@H](C)NC(=O)[C@H](C)NC(=O)[C@H](Cc2c[nH]cn2)NC(=O)[C@H](CCC(=O)O)NC(=O)[C@@H](NC(=O)[C@H](CC(C)C)NC(=O)[C@H](Cc2c[nH]c3ccccc23)NC(=O)[C@H](Cc2ccc(O)cc2)NC(=O)[C@H](C)NC(=O)[C@@H]2CCCN2C(=O)[C@H](CC(=O)O)NC(=O)[C@H](C)N)CSCC(=O)Nc2ccc(cc2)NC(=O)CSC[C@@H](C(=O)N[C@@H](CCC(=O)O)C(=O)N[C@H](C(=O)N[C@@H](CCC(=O)O)C(N)=O)C(C)C)NC1=O` [Compound 13] (H-ADPAYWLCEHAALICEVE-NH2; linker 8-15 via Phenylene(1,4-NHCOCH2)2; N-terminus and C-terminus assumed) to `CC[C@H](C)[C@@H]1NC(=O)[C@H](CC(C)C)NC(=O)[C@H](C)NC(=O)[C@H](C)NC(=O)[C@H](Cc2c[nH]cn2)NC(=O)[C@H](CCC(=O)O)NC(=O)[C@@H](NC(=O)[C@H](Cc2c[nH]cn2)NC(=O)[C@H](Cc2c[nH]c3ccccc23)NC(=O)[C@H](CCC(N)=O)NC(=O)[C@H](C)NC(=O)[C@@H]2CCCN2C(=O)[C@H](CC(=O)O)NC(=O)[C@H](C)N)CSCC(=O)Nc2ccc(cc2)NC(=O)CSC[C@@H](C(=O)N[C@@H](CCC(=O)O)C(=O)N[C@@H](CC(C)C)C(=O)N[C@@H](CC(=O)O)C(N)=O)NC1=O` [Compound 10] (H-ADPAQWHCEHAALICELD-NH2; linker 8-15 via Phenylene(1,4-NHCOCH2)2; N-terminus and C-terminus assumed), the chromatographic logD falls from 0.8 to 0.39.

`CC[C@H](C)[C@@H]1NC(=O)[C@@H](NC(=O)[C@H](CC(=O)O)NC(=O)[C@H](CCC(=O)O)NC(=O)[C@H](CC(=O)O)NC(=O)[C@H](C)NC(=O)[C@@H]2CCCN2C(=O)[C@H](CC(=O)O)NC(=O)[C@H](C)N)CSCC(=O)Nc2ccc(cc2)NC(=O)CSC[C@@H](C(=O)N[C@@H](CCC(N)=O)C(=O)N[C@@H](Cc2c[nH]c3ccccc23)C(=O)N[C@@H](CC(=O)O)C(N)=O)NC(=O)[C@H]([C@@H](C)CC)NC(=O)[C@H](Cc2c[nH]cn2)NC(=O)[C@H](C)NC(=O)[C@H](C)NC(=O)[C@H](CC(C)C)NC1=O` [Compound 9] (H-ADPADEDCILAAHICQWD-NH2; linker 8-15 via Phenylene(1,4-NHCOCH2)2; N-terminus and C-terminus assumed) showed a chromatographic logD of 0.29.

Source: patent US12398178B2, “Collections of peptides, peptide agents, and methods of use thereof” (Parabilis Medicines, Inc., priority 2018, dated 2025)
